# In patent US20080003305A1, “PROCESS AND COMPOSITIONS FOR THE DISINFECTION OF WATERS” (BROMINE COMPOUNDS LIMITED, priority 1991, published 2008):
# Experiments:
# [1] = system: MOs in starch sizing mixture; assay: Efficacy of oxidizing and non-oxidizing biocides in a starch sizing mixture (paper industry); type: cell-based; conditions: 30 ppm active ingredient, 60° C.; for Surviving MOs after time (hours): 4: 4 hours; for Surviving MOs after time (hours): 28: 28 hours; for Surviving MOs after time (hours): 48: 48 hours; for Surviving MOs after time (hours): 72: 72 hours
# Method: Efficacy of Oxidizing and Non-Oxidizing Biocides is a Starch Sizing Mixture (Paper Industry)
# Efficacy was measured at 60° C.
# NH4Br+NaOCl: stock concentration 0.1%.
# Dosage: 30 ppm active ingredient.
# Incubation temperature 60° C.
# [2] = system: survivors in water taken from a citrus juice evaporator; assay: Efficacy in water taken from a citrus juice evaporator; comparison to non-oxidizing biocides; type: cell-based; conditions: dose 30 mg/l
# Method: Efficacy of NH4Cl+NaOCl in Water Taken from a Citrus Juice Evaporator; Comparison to Non-Oxidizing Biocides
# Water demand: higher than 30 ppm of Cl2 (out of 30 ppm Cl2) within 60 minutes.
# Concentration of stock solution (NH4Cl+NaOCl): 1000 ppm.
# Algicol II is a quaternary ammonium salt.
# [3] = Residue as Cl2 in water from a citrus juice evaporator; type: physicochemical; conditions: 30 ppm as Cl2
# Method: (§1) Kinetics of Kill of Various Mixtures of Ammonium Salts Mixed with NaOCl in Water from a Citrus Juice Evaporator
# (§2) Demand: Higher than 30 ppm out of 30 ppm of Cl2 during 10 minutes.
# (§3) Stock concentration of NH4X+NaOCl: 0.1% as Cl2
# total aerobic MOs = assay: Kinetics of kill in water from a citrus juice evaporator: total aerobic; type: cell-based; conditions: 30 ppm as Cl2
# Method: as §1, §2, §3
# [4] = Residue as Cl2 in domestic waste; type: physicochemical; conditions: 20 ppm as Cl2, contact time 10 minutes
# Method: (§4) Efficacy of Oxidizing Biocides in Domestic Waste
# (§5) Non-treated domestic waste roughly filtered; contact time: 10 minutes.
# (§6) Stock concentration: 0.5% as Cl2.
# [5] = system: total aerobic viable counts; assay: Efficacy of oxidizing biocides in water taken from a paper mill (thick stock of pulp slurry); type: cell-based; conditions: 15 mg/l as Cl2
# Method: Efficacy of Oxidizing Biocides in Water Taken from a Paper Mill (Thick Stock of Pulp Slurry)
# Microorganisms were incubated at 37° C. (total aerobic viable counts).
# Concentration of stock solution: 0.1% as Cl2.
# Pseudomonas sp. = assay: Efficacy in buffer at pH-7.5 against Pseudomonas sp.; type: cell-based; conditions: buffer pH 7.5, 1 ppm as Cl2
# Method: Efficacy in Buffer at pH-7.5 against Pseudomonas sp.
# Chlorine demand: 0.1 ppm out of 1 ppm within 20 minutes
# NH4Br+NaOCl: stock concentration: 1000 ppm as Cl2
# Preparation of stock solution: NH4Br was dissolved in de-ionized water (2761 ppm). NaOCl (2000 ppm as Cl2) was quickly added dropwise to the ammonium bromide solution while stirring the mixture. The stock solution was used immediately.
# Fecal coli = assay: Efficacy of oxidizing biocides in domestic waste: fecal coli; type: cell-based; conditions: 20 ppm as Cl2; contact time 10 minutes
# Method: as §4, §5, §6
# bacillus mycoides = assay: Efficacy of ammonium bromide at various pHs; type: cell-based; conditions: 2 ppm as Cl2
# Method: Efficacy of Ammonium Bromide at Various pHs
# Examined MO: bacillus mycoides
# NH4Br+NaOCl: molar ratio 1:1; stock concentration: 0.5%;
# NH4Br+NaOCl was either pre-mixed or added in situ to the buffer.
# Demand: 1.8 ppm out of 2 ppm of Cl2 within 60 minutes.
# total count [6] = assay: Efficacy of oxidizing biocides in domestic waste: total count; type: cell-based; conditions: 20 ppm as Cl2; contact time 10 minutes
# Method: as §4, §5, §6
# [7] = system: fouling of size press filters; assay: Field experiment, starch sizing mixture (paper mill); conditions: NaOCl (10% as Cl2) fed every 8 hours, 30 liters per portion
# Method: • Paper mill, starch sizing • Contained volume: 20 m^3 • Flow rate: 8.33 m^3/h. (6% starch in H2O), • pH about 8.0 • Temperature: 50° C.-70° C.
# Sizing mixture is recirculated in a size press through a filter (80 microns). Circulation rate: 6 m^3/h. The sizing mixture had been previously treated with NaOCl (10% as Cl2), which was fed every 8 hours (30 liters per portion).
# Use of NaOCl was replaced by the use of a mixture of NH4Br+NaOCl (stock concentration 0.5% as Cl2).
# total count [8] = assay: Dependence of efficacy of NH4Br+NaOCl on the concentration of stock solution, industrial waste water; type: cell-based; conditions: no pre-mixed stock, 4 ppm as Cl2
# Method: Dependence of Efficacy of Mixtures of NH4Br+NaOCl on the Concentrations of Stock Solution
# Work was carried out in industrial waste water.
# Stock concentrates were prepared in buffer at pH 7.00.
# Biocidal dose: 4 ppm as Cl2.
# total count [9] = assay: Pre-mixing versus in situ addition of ammonium salts and NaOCl, water from a corn-processing plant; type: cell-based; conditions: 12 ppm, stock formed in water
# Method: Pre-Mixing Versus in Situ Addition of Ammonium Salts and NaOCl
# Water from a corn-processing plant; high demand for Cl2,
# NH4Cl+NaOCl: stock concentration: 1%
# NH4Br+NaOCl: stock concentration: 0.5%
# Stock solutions were formed at pH 14.0; 7.0, 4.0 and in water.
# For in situ addition: both NH4X and NaOCl were dissolved at the appropriate pH.
# aerob. MOs = assay: Efficacy in domestic waste containing a high concentration of amines: aerobic MOs; type: cell-based; conditions: 60 ppm; contact time 10 minutes; N as NH3 50mg/l; pH 6.10
# Method: (§7) Efficacy of a Series of Biocides in Domestic Waste Containing a High Concentration of Amines
# (§8) Incubation temperature: 27° C.
# (§9) Stock concentration: 0.2%
# anaer. MOs = assay: Efficacy in domestic waste containing a high concentration of amines: anaerobic MOs; type: cell-based; conditions: 60 ppm; contact time 10 minutes; N as NH3 50mg/l; pH 6.10
# Method: as §7, §8, §9
# total anaerobic MOs = assay: Kinetics of kill in water from a citrus juice evaporator: total anaerobic; type: cell-based; conditions: 30 ppm as Cl2
# Method: as §1, §2, §3
# [10] = Residue as Cl2 in domestic waste containing a high concentration of amines; type: physicochemical; conditions: 60 ppm
# Method: as §7, §8, §9
smiles,measurement,setting,value
N#CSCSC#N [MBT],Surviving MOs after time (hours): 4,[1],9 × 10^4 cfu/ml
same,Surviving MOs after time (hours): 28,[1],4 × 10^4 cfu/ml
same,Surviving MOs after time (hours): 48,[1],2 × 10^4 cfu/ml
same,Surviving MOs after time (hours): 72,[1],2 × 10^4 cfu/ml
same,Survivors after time (hours): 1,[2]; 1 hour,1 × 10^6 cfu/ml
same,Survivors after time (hours): 24,[2]; 24 hours,1 × 10^3 cfu/ml
same,Survivors after time: 7 days,[2]; 7 days,8 × 10^2 cfu/ml
Cn1sccc1=O [MIT],Surviving MOs after time (hours): 4,[1],2 × 10^4 cfu/ml
same,Surviving MOs after time (hours): 28,[1],2 × 10^3 cfu/ml
same,Surviving MOs after time (hours): 48,[1],2 × 10^3 cfu/ml
same,Surviving MOs after time (hours): 72,[1],1 × 10^3 cfu/ml
"[Na+].[O-]Cl [NaOCl, sodium hypochlorite]",residue as Cl2 free after time (minutes): 10,"[3]; free, 10 minutes",0 (0)
same,residue as Cl2 free after time (minutes): 20,"[3]; free, 20 minutes",0 (0)
same,residue as Cl2 free after time (minutes): 60,"[3]; free, 60 minutes",0 (0)
same,residue as Cl2 (total) after time (minutes): 10,"[3]; total, 10 minutes",0 (0)
same,residue as Cl2 (total) after time (minutes): 20,"[3]; total, 20 minutes",0 (0)
same,residue as Cl2 (total) after time (minutes): 60,"[3]; total, 60 minutes",0 (0)
same,Surviving MOs after time (minutes); total aerobic: 10,total aerobic MOs; 10 minutes,2 × 10^5 cfu/ml
same,Surviving MOs after time (minutes); total aerobic: 20,total aerobic MOs; 20 minutes,2 × 10^7 cfu/ml
same,Surviving MOs after time (minutes); total aerobic: 60,total aerobic MOs; 60 minutes,1 × 10^7 cfu/ml
same,Surviving MOs after time (hours): 4,[1],4 × 10^3 cfu/ml
same,Surviving MOs after time (hours): 28,[1],2 × 10^6 cfu/ml
same,Surviving MOs after time (hours): 48,[1],3 × 10^6 cfu/ml
same,Surviving MOs after time (hours): 72,[1],3 × 10^6 cfu/ml
same,residue as Cl2 free,[4]; free,0 (0) ppm
same,residue as Cl2 (total),[4]; total,0 (0) ppm
same,Viable counts after time (minutes): 30,[5]; 30 minutes,6 × 10^3 cfu/ml
same,Viable counts after time (minutes): 70,[5]; 70 minutes,2 × 10^3 cfu/ml
same,Viable counts after time: 25 hours,[5]; 25 hours,1 × 10^5 cfu/ml
same,Survivors after time (minutes): 1,Pseudomonas sp.; 1 minute,4 × 10^6 cfu/ml
same,Survivors after time (minutes): 5,Pseudomonas sp.; 5 minutes,1 × 10^5 cfu/ml
same,Survivors after time (minutes): 10,Pseudomonas sp.; 10 minutes,4 × 10^2 cfu/ml
same,Survivors after time (minutes): 20,Pseudomonas sp.; 20 minutes,0 cfu/ml
same,Fecal coli,Fecal coli,5 × 10^5 cfu/ml
same,Survivors pH-7.0 60 m,"bacillus mycoides; pH 7.0, 60 m",1 × 10^5 cfu/ml
same,Survivors pH-7.0 180 m,"bacillus mycoides; pH 7.0, 180 m",1 × 10^5 cfu/ml
same,Survivors pH-7.0 24 h,"bacillus mycoides; pH 7.0, 24 h",1 × 10^5 cfu/ml
same,Survivors pH-8.0 60 m,"bacillus mycoides; pH 8.0, 60 m",3 × 10^5 cfu/ml
same,Survivors pH-8.0 180 m,"bacillus mycoides; pH 8.0, 180 m",1 × 10^5 cfu/ml
same,Survivors pH-8.0 24 h,"bacillus mycoides; pH 8.0, 24 h",1 × 10^5 cfu/ml
same,Survivors pH-9.0 60 m,"bacillus mycoides; pH 9.0, 60 m",1 × 10^5 cfu/ml
same,Survivors pH-9.0 180 m,"bacillus mycoides; pH 9.0, 180 m",1 × 10^5 cfu/ml
same,Survivors pH-9.0 24 h,"bacillus mycoides; pH 9.0, 24 h",1 × 10^5 cfu/ml
same,total count,total count [6],6 × 10^6 cfu/ml
same,frequency of filter washing,[7],filters had to be washed once every two hours
same,Survivors total count after time (minutes): 10,total count [8]; 10 minutes,9 × 10^5 cfu/ml
same,Survivors total count after time (minutes): 180,total count [8]; 180 minutes,7 × 10^5 cfu/ml
same,"Survivors (total count) H2O, 60 minutes",total count [9]; 60 minutes,2 × 10^6 cfu/ml
same,"Survivors (total count) H2O, 180 minutes",total count [9]; 180 minutes,2 × 10^6 cfu/ml
same,Surviving MOs after 10 minutes aerob.,aerob. MOs,9 × 10^2 cfu/ml
same,Surviving MOs after 10 minutes anaer.,anaer. MOs,3 × 10^3 cfu/ml
same,Surviving MOs after time (minutes); (total anaerobic): 10,total anaerobic MOs; 10 minutes,8 × 10^4 cfu/ml
same,Surviving MOs after time (minutes); (total anaerobic): 20,total anaerobic MOs; 20 minutes,3 × 10^6 cfu/ml
same,Residue free as Cl2 after 10 minutes,[10]; free,0.2
same,Residue (total) as Cl2 after 10 minutes,[10]; total,1.5
